Experimental data from ChEMBL document CHEMBL4251651, “Synthesis and biological evaluation of 4-amino-5-cinnamoylthiazoles as chalcone-like anticancer agents” (Eur J Med Chem, 2018).
Converted amounts (≈) assume the structure as drawn.

Columns and labels:
HepG2 [1] = experiment: Antiproliferative activity against human HepG2 cells after 48 hrs by MTT assay; assay type: functional, cell-based; settings: HepG2, 48 h
SW480 = experiment: Antiproliferative activity against human SW480 cells after 48 hrs by MTT assay; assay type: functional, cell-based; settings: SW480, 48 h
MCF7 = experiment: Antiproliferative activity against human MCF7 cells after 48 hrs by MTT assay; assay type: functional, cell-based; settings: MCF7, 48 h
HepG2 [2] = experiment: Induction of apoptosis in human HepG2 cells assessed as early apoptotic cells at 1.2 times IC50 after 48 hrs by Annexin V-FITC/propidium iodide staining based flow cytometry (reference value: 11.7%); assay type: functional
HepG2 [3] = experiment: Induction of apoptosis in human HepG2 cells assessed as necrotic cells at IC50 after 48 hrs by Annexin V-FITC/propidium iodide staining based flow cytometry (reference value: 7.77%); assay type: functional
HepG2 [4] = experiment: Induction of apoptosis in human HepG2 cells assessed as early apoptotic cells at IC50 after 48 hrs by Annexin V-FITC/propidium iodide staining based flow cytometry (reference value: 11.7%); assay type: functional
HepG2 [5] = experiment: Induction of apoptosis in human HepG2 cells assessed as necrotic cells at 1.2 times IC50 after 48 hrs by Annexin V-FITC/propidium iodide staining based flow cytometry (reference value: 7.77%); assay type: functional
HepG2 [6] = experiment: Cell cycle arrest in human HepG2 cells assessed as accumulation at S phase at IC50 after 48 hrs by propidium iodide staining-based flow cytometry (reference value: 51.72%); assay type: functional
HepG2 [7] = experiment: Induction of apoptosis in human HepG2 cells assessed as late apoptotic cells at IC50 after 48 hrs by Annexin V-FITC/propidium iodide staining based flow cytometry (reference value: 18.1%); assay type: functional
HepG2 [8] = experiment: Cell cycle arrest in human HepG2 cells assessed as accumulation at G2 phase at 1.2 times IC50 after 48 hrs by propidium iodide staining-based flow cytometry (reference value: 38.82%); assay type: functional
HepG2 [9] = experiment: Induction of apoptosis in human HepG2 cells assessed as viable cells at IC50 after 48 hrs by Annexin V-FITC/propidium iodide staining based flow cytometry (reference value: 62.4%); assay type: functional
HepG2 [10] = experiment: Induction of apoptosis in human HepG2 cells assessed as viable cells at 1.2 times IC50 after 48 hrs by Annexin V-FITC/propidium iodide staining based flow cytometry (reference value: 62.4%); assay type: functional
HepG2 [11] = experiment: Cell cycle arrest in human HepG2 cells assessed as accumulation at G1 phase at IC50 after 48 hrs by propidium iodide staining-based flow cytometry (reference value: 29.83%); assay type: functional
HepG2 [12] = experiment: Cell cycle arrest in human HepG2 cells assessed as accumulation at S phase at 1.2 times IC50 after 48 hrs by propidium iodide staining-based flow cytometry (reference value: 51.72%); assay type: functional
HepG2 [13] = experiment: Cell cycle arrest in human HepG2 cells assessed as accumulation at G1 phase at 1.2 times IC50 after 48 hrs by propidium iodide staining-based flow cytometry (reference value: 29.83%); assay type: functional
HepG2 [14] = experiment: Induction of apoptosis in human HepG2 cells assessed as late apoptotic cells at 1.2 times IC50 after 48 hrs by Annexin V-FITC/propidium iodide staining based flow cytometry (reference value: 18.1%); assay type: functional
HepG2 [15] = experiment: Cell cycle arrest in human HepG2 cells assessed as accumulation at G2 phase at IC50 after 48 hrs by propidium iodide staining-based flow cytometry (reference value: 38.82%); assay type: functional

SMILES | IC50 (HepG2 [1]) [µg/mL] | IC50 (SW480) [µg/mL] | IC50 (MCF7) [µg/mL] | further results
Nc1nc(N2CCCCC2)sc1C(=O)/C=C/c1ccc(Br)cc1 | 17.4 (≈ 44.4 µM) | 31.6 (≈ 80.5 µM) | 25.6 (≈ 65.3 µM) | 
Nc1nc(N2CCOCC2)sc1C(=O)/C=C/c1ccc(Cl)cc1Cl | 12.8 (≈ 33.3 µM) | 33.2 (≈ 86.4 µM) | 18.6 (≈ 48.4 µM) | 
Nc1nc(N2CCOCC2)sc1C(=O)/C=C/c1ccc([N+](=O)[O-])cc1 | 27.6 (≈ 76.6 µM) | 43.3 (≈ 120 µM) | 40 (≈ 111 µM) | 
Nc1nc(N2CCOCC2)sc1C(=O)/C=C/c1ccc(Cl)cc1 | 35.8 (≈ 102 µM) | 33.4 (≈ 95.5 µM) | > 50 | 
Nc1nc(N2CCCCC2)sc1C(=O)/C=C/c1ccc(Cl)cc1 | 12 (≈ 34.5 µM) | 29.4 (≈ 84.5 µM) | 19.5 (≈ 56.1 µM) | Activity (HepG2 [2]): 3.31%; Activity (HepG2 [3]): 18.5%; Activity (HepG2 [4]): 2.84%; Activity (HepG2 [5]): 17.2%; Activity (HepG2 [6]): 28.24%; Activity (HepG2 [7]): 34.4%; Activity (HepG2 [8]): 37.65%; Activity (HepG2 [9]): 44.3%; Activity (HepG2 [10]): 44.8%; Activity (HepG2 [11]): 44.47%; Activity (HepG2 [12]): 18.26%; Activity (HepG2 [13]): 48.58%; Activity (HepG2 [14]): 34.7%; Activity (HepG2 [15]): 27.88%
Nc1nc(N2CCCCC2)sc1C(=O)/C=C/c1ccc([N+](=O)[O-])cc1 | 15.4 (≈ 43 µM) | 25.6 (≈ 71.4 µM) | 14.6 (≈ 40.7 µM) | Activity (HepG2 [2]): 2.53%; Activity (HepG2 [3]): 24.2%; Activity (HepG2 [4]): 2.1%; Activity (HepG2 [5]): 24.2%; Activity (HepG2 [6]): 27.92%; Activity (HepG2 [7]): 27.7%; Activity (HepG2 [8]): 25.23%; Activity (HepG2 [9]): 46%; Activity (HepG2 [10]): 26.1%; Activity (HepG2 [11]): 47.1%; Activity (HepG2 [12]): 33.47%; Activity (HepG2 [13]): 54.18%; Activity (HepG2 [14]): 47.1%; Activity (HepG2 [15]): 30.17%
Nc1nc(N2CCCC2)sc1C(=O)/C=C/c1ccc(Cl)cc1 | 27 (≈ 80.9 µM) | 19.9 (≈ 59.6 µM) | 24 (≈ 71.9 µM) | 
COc1ccccc1/C=C/C(=O)c1sc(N2CCCC2)nc1N | 35.1 (≈ 107 µM) | 17 (≈ 51.6 µM) | > 50 | 
Nc1nc(N2CCCC2)sc1C(=O)/C=C/c1ccc(Cl)cc1Cl | 10.6 (≈ 28.8 µM) | 18.4 (≈ 50 µM) | 12.6 (≈ 34.2 µM) | Activity (HepG2 [2]): 7.12%; Activity (HepG2 [3]): 40.8%; Activity (HepG2 [4]): 1.43%; Activity (HepG2 [5]): 24.4%; Activity (HepG2 [6]): 14.64%; Activity (HepG2 [7]): 13.2%; Activity (HepG2 [8]): 68.37%; Activity (HepG2 [9]): 44.6%; Activity (HepG2 [10]): 24.2%; Activity (HepG2 [11]): 22.09%; Activity (HepG2 [12]): 16.34%; Activity (HepG2 [13]): 27.04%; Activity (HepG2 [14]): 44.3%; Activity (HepG2 [15]): 64.84%
Nc1nc(N2CCCCC2)sc1C(=O)/C=C/c1ccc(Cl)cc1Cl | 22.9 (≈ 59.9 µM) | 36.8 (≈ 96.3 µM) | 25.5 (≈ 66.7 µM) | 
Nc1nc(N2CCCCC2)sc1C(=O)/C=C/c1ccccc1 | 16.6 (≈ 53 µM) | 28.1 (≈ 89.7 µM) | 22.4 (≈ 71.5 µM) | 
Nc1nc(N2CCCC2)sc1C(=O)/C=C/c1ccc(Br)cc1 | 30 (≈ 79.3 µM) | 15.8 (≈ 41.8 µM) | 41.3 (≈ 109 µM) | 
Nc1nc(N2CCOCC2)sc1C(=O)/C=C/c1ccc(Br)cc1 | > 50 | 32.7 (≈ 82.9 µM) | > 50 | 
Nc1nc(N2CCOCC2)sc1C(=O)/C=C/c1ccccc1 | 21.4 (≈ 67.9 µM) | 30.5 (≈ 96.7 µM) | 34.7 (≈ 110 µM) | 
Nc1nc(N2CCCC2)sc1C(=O)/C=C/c1ccccc1 | 29.6 (≈ 98.9 µM) | 31.7 (≈ 106 µM) | 21.7 (≈ 72.5 µM) | 
Nc1nc(N2CCCC2)sc1C(=O)/C=C/c1ccc([N+](=O)[O-])cc1 | 23.5 (≈ 68.2 µM) | 22.4 (≈ 65 µM) | 26.3 (≈ 76.4 µM) | 
COc1cc([C@@H]2c3cc4c(cc3[C@@H](O[C@@H]3O[C@@H]5CO[C@@H](C)O[C@H]5[C@H](O)[C@H]3O)[C@H]3COC(=O)[C@H]23)OCO4)cc(OC)c1O [ETOPOSIDE] |  |  |  | Activity (HepG2 [3]): 35.5%; Activity (HepG2 [4]): 2.59%; Activity (HepG2 [7]): 24.7%; Activity (HepG2 [9]): 37.1%
